Data published in patent publication US20080242674A1, “Medicine For Prevention or Treatment of Frequent Urination or Urinary Incontinence” (priority 2004, published 2008).
Counter-ions that a name gives are not always drawn.

Columns and labels:
[1] = tested on: acetic acid-stimulated rats; test: Micturition interval measurement in acetic acid-stimulated rat; assay type: in vivo; details: female rats, urethane anesthesia, 0.25% acetic acid instilled into the bladder, 30 minutes after administration
From the text: Female rats were anesthetized with urethane. After the midline abdominal was incised, and the ureter on either side was ligated and cut, the renal end was kept open. A cannula was inserted into the urinary bladder through the top of the bladder dome and connected to a three-way connecter to establish routes for the intra-bladder pressure measurement and instillation into the bladder. The other end of the bladder cannula was connected to a pressure transducer, and intra-bladder pressure was measured. Saline was continuously instilled into the bladder (3.6 mL/hr) . […] After stable micturition intervals were obtained, silodosin (0.03 mg/kg), (−)-2-[4-[2-[[(1S, 2R)-2-hydroxy-2-(4-hydroxyphenyl)-1-methylethyl]amino]ethyl]-2,5-dimethylphenoxy] acetic acid (hereinafter referred to as “compound 2”) (1 mg/kg) or both of silodosin (0.03 mg/kg) and compound 2 (1 mg/kg) were injected through a femoral venous cannula respectively, and time from when a micturition occurred till when the next micturition was induced (micturition interval) was measured. Mean micturition intervals for 2 times before each drug administration and for all micturition which occurred in 30 minutes after the drug administration were calculated, and the change to the mean value before administration was evaluated. […]

anesthetized rats = test: Intra-bladder pressure measurement in anesthetized rat; assay type: in vivo; details: male rats, urethane anesthesia, after midodorin hydrochloride 3 mg/kg iv, isoproterenol 10 mg/kg iv = 100%
From the text: Male rats were anesthetized with urethane. To each rat, tracheal and femoral vein cannulas were inserted. After midline abdominal incision, the ureter on either side was ligated and cut at the proximal end of the ligated portion. After the urethra was ligated, a cannula was inserted into the urinary bladder through the top of the bladder dome. Through a three-way connecter, warmed saline was instilled to adjust the intra-bladder pressure to about 10 cmH2O. The other end of the bladder cannula was connected to a pressure transducer, and intra-bladder pressure was measured. Three mg/kg of midodorin hydrochloride was injected through the femoral vein cannula. Ten minutes after the midodorin hydrochloride injection, tamsulosin hydrochloride (5 mg/kg, iv) or compound 1 (10 mg/kg, iv) was intravenously injected, and the decreasing effect by single administration of each drug was evaluated. Next, 15 minutes after administration, compound 1 (10 mg/kg, iv) was intravenously injected to the animal treated with tamsulosin hydrochloride (5 mg/kg, iv) to evaluate the combinational effect. At the last, 10 mg/kg of isoproterenol was intravenously injected, and the maximum decreasing effect was set as 100% .

With Cc1cc(OCC(=O)O)c(C)cc1CCN[C@@H](C)[C@H](O)c1ccc(O)cc1 [compound 2, (−)-2-[4-[2-[[(1S, 2R)-2-hydroxy-2-(4-hydroxyphenyl)-1-methylethyl]amino]ethyl]-2,5-dimethylphenoxy] acetic acid] the “change in the micturition interval (percentage of the mean value before administration)” value ([1]; compound 2 1 mg/kg iv alone) was 116.3%.
For CCOC(=O)COc1cc(C)c(CCN[C@@H](C)[C@H](O)c2ccc(O)cc2)cc1C [compound 1, ethyl (−)-2-[4-[2-[[(1S, 2R) -2-hydroxy-2-(4-hydroxyphenyl)1-methylethyl]amino]ethyl]-2,5-dimethyl-phenoxy]acetate], the “effect decreasing the intra-bladder pressure (percentage of the maximum decreasing effect by isoproterenol)” value (anesthetized rats; compound 1 10 mg/kg iv alone) was 37%.
For C[C@H](Cc1cc2c(c(C(N)=O)c1)N(CCCO)CC2)NCCOc1ccccc1OCC(F)(F)F [silodosin], the “change in the micturition interval (percentage of the mean value before administration)” value ([1]; silodosin 0.03 mg/kg iv alone) was 115.2%.
For CCOc1ccccc1OCCN[C@H](C)Cc1ccc(OC)c(S(N)(=O)=O)c1 [tamsulosin hydrochloride], the “effect decreasing the intra-bladder pressure (percentage of the maximum decreasing effect by isoproterenol)” value (anesthetized rats; tamsulosin hydrochloride 5 mg/kg iv alone) was 26%.
